These results are taken from US8722720B2, “Imidazole derivatives as IDO inhibitors” (NewLink Genetics Corporation, priority 2010, dated 2014).

Molecules are shown by their SMILES.

In the test the target is T1, purified human IDO protein (Homo sapiens, UniProt P14902).
T1 construct: 2 extra amino acids (linker from the BglII cloning site of pQE70); made in house; host or cells: E. coli M15(pREP4) with plasmid pQE70-hIDO
T1 sequence (P14902 whole entry P110S/E119G): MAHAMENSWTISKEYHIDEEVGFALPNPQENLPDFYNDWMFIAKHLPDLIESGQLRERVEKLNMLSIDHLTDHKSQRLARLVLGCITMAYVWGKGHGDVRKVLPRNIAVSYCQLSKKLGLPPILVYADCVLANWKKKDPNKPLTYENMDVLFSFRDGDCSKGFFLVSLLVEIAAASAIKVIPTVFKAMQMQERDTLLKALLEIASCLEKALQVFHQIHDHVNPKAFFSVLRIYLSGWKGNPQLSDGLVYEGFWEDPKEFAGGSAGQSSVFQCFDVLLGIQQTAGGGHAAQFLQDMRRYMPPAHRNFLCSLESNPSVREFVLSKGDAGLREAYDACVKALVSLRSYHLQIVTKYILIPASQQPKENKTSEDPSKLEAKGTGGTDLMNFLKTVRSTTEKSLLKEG
Briefly: Enzymatic IDO assay (kynurenine production, absorbance at 480 nm). The test is classed as biochemical. The settings on record: recombinant human IDO; values reported in ranges; read-out: hIDO IC50. Summed up:
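Inhibitors (final 1 mM to 5 nM, in 50 mM potassium phosphate) preincubated with enzyme 5 min at 25 °C, then 200 μM L-tryptophan added, 15 min at 37 °C. TCA stop and 60 °C hydrolysis to kynurenine, detected with p-dimethylaminobenzaldehyde at 480 nm. IC50 by nonlinear regression.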
Usually IC50 stands for the concentration needed to halve the response being measured. With `O=C(O)c1cccc(C(=O)Nc2ccc(CCOc3ccccc3-c3c[nH]cn3)cc2)c1` [compound 1276, 3-((4-(2-(2-(1H-imidazol-4-yl)phenoxy)ethyl)phenyl)carbamoyl)benzoic acid], the 50% inhibitory concentration (IC50) lay in the range of 1 to 10 µM. In the case of `O=C(O)c1ccccc1C(=O)Nc1ccc(CCOc2ccccc2-c2c[nH]cn2)cc1` [compound 1285, 2-((4-(2-(2-(1H-imidazol-4-yl)phenoxy)ethyl)phenyl)carbamoyl)benzoic acid], the IC50 was 1 to 10 µM. The figure for `c1ccc(-c2c[nH]cn2)c(OCc2cscn2)c1` [compound 1289, 4-((2-(1H-imidazol-4-yl)phenoxy)methyl) thiazole] is 10 to 100 µM. On to `Fc1ccc(OCCc2ccccc2)c(-c2cnc[nH]2)c1` [compound 1292, 5-(5-fluoro-2-phenethoxyphenyl)-1H-imidazole], for which the IC50 fell in the range of 10 to 100 µM. The figure for `O=C(CC1CCOCC1)Nc1ccc(CCOc2ccccc2-c2c[nH]cn2)c(F)c1` [compound 1295, N-(4-(2-(2-(1H-imidazol-4-yl)phenoxy)ethyl)-3-fluorophenyl)-2-(tetrahydro-2H-pyran-4-yl)acetamide] is below 1 µM; for `Fc1cccc(-c2c[nH]cn2)c1OCCc1ccccc1Cl` [compound 1296, 4-(2-(2-chlorophenethoxy)-3-fluorophenyl)-1H-imidazole] it is 10 to 100 µM.

`O=C(CC1CCOCC1)Nc1ccc(CCOc2ccccc2-c2c[nH]cn2)cc1Cl` [compound 1297, N-(4-(2-(2-(1H-imidazol-4-yl)phenoxy)ethyl)-2-chlorophenyl)-2-(tetrahydro-2H-pyran-4-yl)acetamide]: the 50% inhibitory concentration (IC50) lay within 10 to 100 µM. Turning to `O=C(CC1CCOCC1)Nc1ccc(Cl)c(CCOc2ccccc2-c2c[nH]cn2)c1` [compound 1298, N-(3-(2-(2-(1H-imidazol-4-yl)phenoxy)ethyl)-4-chlorophenyl)-2-(tetrahydro-2H-pyran-4-yl)acetamide], the IC50 is 10 to 100 µM. As for `O=C(CC1CCOCC1)Nc1ccc(CCOc2ccccc2-c2c[nH]cn2)c(C(F)(F)F)c1` [compound 1305, N-(4-(2-(2-(1H-imidazol-4-yl)phenoxy)ethyl)-3-(trifluoromethyl)phenyl)-2-(tetrahydro-2H-pyran-4-yl)acetamide], the IC50 was below 1 µM. Take `O=C(O)c1ccccc1CCOc1ccccc1-c1c[nH]cn1` [compound 1325, 2-(2-(2-(1H-imidazol-4-yl)phenoxy)ethyl) benzoic acid]: the 50% inhibitory concentration (IC50) was above 100 µM. With `CNC(=O)c1ccccc1CCOc1ccccc1-c1c[nH]cn1` [compound 1332, 2-(2-(2-(1H-imidazol-4-yl)phenoxy)ethyl)-N-methylbenzamide] the figure was above 100 µM; with `NC(C(=O)Nc1ccc(CCOc2ccccc2-c2c[nH]cn2)c(Cl)c1)C1CCOCC1` (stereo not shown) [compound 1333, N-(4-(2-(2-(1H-imidazol-4-yl)phenoxy)ethyl)-3-chlorophenyl)-2-amino-2-(tetrahydro-2H-pyran-4-yl)acetamide], below 1 µM; with `CC(=O)NC(C(=O)Nc1ccc(CCOc2ccccc2-c2c[nH]cn2)c(Cl)c1)C1CCOCC1` (stereo not shown) [compound 1337, N-(4-(2-(2-(1H-imidazol-4-yl)phenoxy)ethyl)-3-chlorophenyl)-2-acetamido-2-(tetrahydro-2H-pyran-4-yl)acetamide], below 1 µM. The figure for `O=C(Nc1ccc(CCOc2ccccc2-c2c[nH]cn2)c(Cl)c1)C1CCCCN1` (stereo not shown) [compound 1344, N-(4-(2-(2-(1H-imidazol-4-yl)phenoxy)ethyl)-3-chlorophenyl)piperidine-2-carboxamide] is 1 to 10 µM.

Take `Nc1ncccc1C(=O)Nc1ccc(CCOc2ccccc2-c2c[nH]cn2)c(Cl)c1` [compound 1345, N-(4-(2-(2-(1H-imidazol-4-yl)phenoxy)ethyl)-3-chlorophenyl)-2-aminonicotinamide]: the half-inhibitory concentration (IC50) was below 1 µM. `O=C(Nc1cccc(OC2CCOC2)c1)Nc1ccc(CCOc2ccccc2-c2c[nH]cn2)c(Cl)c1` (stereo not shown) [compound 1346, 1-(4-(2-(2-(1H-imidazol-4-yl)phenoxy)ethyl)-3-chlorophenyl)-3-(3-(tetrahydrofuran-3-yloxy)phenyl)urea]: the IC50 lay in the range of 1 to 10 µM. For `O=C(Nc1ccccc1)Nc1ccc(CCOc2ccccc2-c2c[nH]cn2)c(Cl)c1` [compound 1347, 1-(4-(2-(2-(1H-imidazol-4-yl)phenoxy)ethyl)-3-chlorophenyl)-3-phenylurea], the 50% inhibitory concentration (IC50) was below 1 µM.

Consider `O=C(COc1ccccc1-c1c[nH]cn1)C1CCCCC1` [compound 1354, 2-(2-(1H-imidazol-4-yl)phenoxy)-1-cyclohex-ylethanone], for which the IC50 lay in the range of 1 to 10 µM.

`O=C(Cc1cncnc1)Nc1ccc(CCOc2ccccc2-c2c[nH]cn2)c(Cl)c1` [compound 1366, N-(4-(2-(2-(1H-imidazol-4-yl)phenoxy)ethyl)-3-chlorophenyl)-2-(pyrimidin-5-yl)acetamide]: the IC50 was below 1 µM.
